The results in this text go back to patent US20200237905A1, “COMBINATION THERAPY WITH A BET INHIBITOR, A BCL-2 INHIBITOR AND AN ANTI-CD20 ANTIBODY” (Hoffmann-La Roche Inc., priority 2017, published 2020).

The test system of assay [1] is WSU-DLCL2 xenografts (CD20+). The experiment in a line: In vivo antitumor efficacy against WSU-DLCL2 xenografts, obinutuzumab study (FIG. 1-2). To be noted: for median tumor volume: venetoclax 100 mg/kg, RG6146 30 mg/kg; for TGI % (tumor growth inhibition compared to control) / npTCR (non-parametric Treatment to Control Ratio) / Tumor free mice: Day 36; for TGI % (tumor growth inhibition compared to control): obinutuzumab 10 mg/kg once weekly; for Tumor free mice: tumor free mice / mice in group. Set-up: species or system human. The method, then:
(§1) Antibody buffer included histidine. Antibody solution was diluted appropriately in buffer from stock prior injections. BET inhibitor RG6146 was provided as powder from Roche, Basel, Switzerland and resuspended prior to use. Bcl-2 inhibitor GDC-0199 was provided by Genentech, South San Francisco, USA and formulated prior to use.
(§2) The original WSU-DLCL2 human B cell NHL cell line (DLBCL) was purchased from DSMZ (Braunschweig, Germany). Expansion of tumor cells for the transplantation was done by the TAP CompacT CellBase Cell Culture Roboter according to the protocol. Tumor cell line was routinely cultured in RPMI 1640 medium, FCS 10% and L-Glutamin 2 mM at 37° C. in a water-saturated atmosphere at 5% CO2. Culture passage was performed with trypsin/EDTA 1× splitting twice/week and passage 3 used for transplantation.
(§3) Female SCID beige mice, age 6-7 weeks at arrival, maintained under specific-pathogen-free condition with daily cycles of 12 h light/12 h darkness according to committed guidelines. Experimental study protocol was reviewed and approved by local government. After arrival animals were maintained in animal facility for one week to get accustomed to new environment and for observation. Continuous health monitoring was carried out on regular basis. Diet food and autoclaved water were provided ad libitum.
(§4) Animals were controlled daily for clinical symptoms and detection of adverse effects. For monitoring throughout the experiment body weight of animals was documented.
CD20 antibody obinutuzumab was administered as single agent and in combination at 10 mg/kg ip once weekly on days 10, 17, 24 and 31. The corresponding vehicle was administered on the same days. BET inhibitor RG6146 ip treatment at 30 mg/kg was done as single agent and in combination on days 10-18, 21-25 and 28-32. Finally, Bcl-2 inhibitor venetoclax (GDC-0199) was given orally at 100 mg/kg on days 10-18, 21-25 and 28-32 as single agent and in combination.
For the study shown in FIG. 1, WSU-DLCL2 human Diffuse Large B-cell Lymphoma (DLBCL) cells (CD20+) were s.c. inoculated with Matrigel onto female SCID beige mice. Tumor bearing mice were randomized 10 days later to the indicated study groups and compound treatment initiated. Tumor bearing animals were treated with vehicle control, with the BET inhibitor RG6146 at 30 mg/kg, with the anti-CD20 antibody obinutuzumab at 10 mg/kg or with Bcl-2 inhibitor venetoclax (GDC-0199) at 100 mg/kg as single agent. Additionally, three groups were treated with a dual combination of either RG6146 and venetoclax, or RG6146 and obinutuzumab or obinutuzumab and venetoclax. Finally, one study group received the triple combination of BET inhibitor RG6146, CD20 antibody obinutuzumab and Bcl-2 inhibitor venetoclax (GDC-0199). […] In constrast to this, the respective double combination regimens reached a tumor regrowth after about 20 days.

In assay [2] the test system is WSU-DLCL2 xenografts (CD20+). Kind of assay: In vivo antitumor efficacy against WSU-DLCL2 xenografts, rituximab study (FIG. 3). Also on record: species or system human. The note with it: for median tumor volume / npTCR (non-parametric Treatment to Control Ratio) / Tumor free mice: rituximab 10 mg/kg; for median tumor volume: venetoclax 100 mg/kg, RG6146 30 mg/kg; for TGI % (tumor growth inhibition): rituximab 10 mg/kg once weekly, venetoclax 100 mg/kg po and RG6146 30 mg/kg ip days 11-17; for npTCR (non-parametric Treatment to Control Ratio) / Tumor free mice: venetoclax 100 mg/kg po, RG6146 30 mg/kg ip; for Tumor free mice: tumor free mice / mice in group. The method, then: as §1, §2, §3, §4
The corresponding vehicle was administered on the same days. BET inhibitor RG6146 ip treatment at 30 mg/kg was done as single agent and in combination on days 11-17. Finally, bcl-2 inhibitor venetoclax (GDC-0199) was given orally at 100 mg/kg on days 11-17 as single agent and in combination.

The mark [3] stands for this setting: Day 10 (randomisation, start of treatment), s.c. xenograft in female SCID beige mice, obinutuzumab 10 mg/kg.
Setting [4] is: Day 14, female SCID beige mice, obinutuzumab 10 mg/kg.
Setting [5] is: Day 17, female SCID beige mice, obinutuzumab 10 mg/kg.
The mark [6] stands for this setting: Day 21, female SCID beige mice, obinutuzumab 10 mg/kg.
[7] abbreviates: Day 24, female SCID beige mice, obinutuzumab 10 mg/kg.
Setting [8] is: Day 28, female SCID beige mice, obinutuzumab 10 mg/kg.
Where [9] appears, read: Day 31, female SCID beige mice, obinutuzumab 10 mg/kg.
The mark [10] stands for this setting: Day 36 (treatment ended day 32), female SCID beige mice, obinutuzumab 10 mg/kg.
[11] abbreviates: female SCID beige mice, venetoclax 100 mg/kg po, RG6146 30 mg/kg ip.
The mark [12] stands for this setting: obinutuzumab 10 mg/kg, venetoclax 100 mg/kg po, RG6146 30 mg/kg ip.
The mark [13] stands for this setting: Day 11, s.c. xenograft in female SCID beige mice.

Consider “obinutuzumab: Type II anti-CD20 antibody, synonymous for GA101, formerly known as afutuzumab”, for which the median tumor volume is 136 mm^3 in assay [1] (setting [3]); 131 mm^3 in assay [1] (setting [4]); 112 mm^3 in assay [1] (setting [5]); 110 mm^3 in assay [1] (setting [6]); 111 mm^3 in assay [1] (setting [7]); 124 mm^3 in assay [1] (setting [8]). In addition, the median tumor volume in assay [1] (setting [9]) is listed as 132 mm^3; in assay [1] (setting [10]), 382 mm^3; in assay [1] (Day 39 (follow-up after treatment), female SCID beige mice, obinutuzumab 10 mg/kg), 405 mm^3; in assay [1] (Day 43 (follow-up after treatment), female SCID beige mice, obinutuzumab 10 mg/kg), 700 mm^3; in assay [1] (Day 46 (follow-up after treatment), female SCID beige mice, obinutuzumab 10 mg/kg), 713 mm^3; in assay [1] (Day 50 (follow-up after treatment), female SCID beige mice, obinutuzumab 10 mg/kg) it was 758 mm^3. Moreover, the “TGI % (tumor growth inhibition compared to control)” value in assay [1] (setting [11]) is given as 84%. For the same compound, the “npTCR (non-parametric Treatment to Control Ratio)” value in assay [1] (setting [12]) is recorded as 0.20. The Tumor free mice in assay [1] (setting [12]) was 0/10. The “Tumor growth delay (Days): time until relative tumor volume reached again 100% (100% at beginning, Day 10)” value in assay [1] (female SCID beige mice, obinutuzumab 10 mg/kg, venetoclax 100 mg/kg po, RG6146 30 mg/kg ip) is 21 days.

For `Cc1sc2c(c1C)C(c1ccc(Cl)cc1)=N[C@@H](CC(=O)NCCCN1CCN(C)CC1)c1nnc(C)n1-2` [RG6146, 2-[(S)-4-(4-Chloro-phenyl)-2,3,9-trimethyl-6H-1-thia-5,7,8,9a-tetraaza-cyclopenta[e]azulen-6-yl]-N-[3-(4-methyl-piperazin-1-yl)-propyl]-acetamide], the median tumor volume came to 137 mm^3 in assay [1] (setting [3]); 200 mm^3 in assay [1] (setting [4]); 185 mm^3 in assay [1] (setting [5]); 198 mm^3 in assay [1] (setting [6]); 387 mm^3 in assay [1] (setting [7]); 441 mm^3 in assay [1] (setting [8]). In addition, the median tumor volume turned out to be 489 mm^3 in assay [1] (setting [9]); 962 mm^3 in assay [1] (setting [10]); 134 mm^3 in assay [2] (setting [13]); 161 mm^3 in assay [2] (Day 14, female SCID beige mice); 270 mm^3 in assay [2] (Day 18, female SCID beige mice); 245 mm^3 in assay [2] (Day 21, female SCID beige mice). Further, the median tumor volume in assay [2] (Day 25, female SCID beige mice) is reported as 453 mm^3; in assay [2] (Day 28, female SCID beige mice), 550 mm^3. Further, the “TGI % (tumor growth inhibition compared to control)” value in assay [1] (setting [11]) turned out to be 46%. In addition, the “npTCR (non-parametric Treatment to Control Ratio)” value was 0.50 in assay [1] (setting [12]) and 0.71 in assay [2] (Day 28). Moreover, the Tumor free mice in assay [1] (setting [12]) and in assay [2] (Day 28) was 0/9 throughout. Also, the “TGI % (tumor growth inhibition)” value in assay [2] (Day 28, female SCID beige mice) came out at 30%.

For `CC1(C)CCC(CN2CCN(c3ccc(C(=O)NS(=O)(=O)c4ccc(NCC5CCOCC5)c([N+](=O)[O-])c4)c(Oc4cnc5[nH]ccc5c4)c3)CC2)=C(c2ccc(Cl)cc2)C1` [venetoclax, 4-(4-{[2-(4-chlorophenyl)-4,4-dimethylcyclohex-1-en-1-yl]methyl}piperazin-1-yl)-N-({3-nitro-4-[(tetrahydro-2H-pyran-4-ylmethyl)amino]phenyl}sulfonyl)-2-(1H-pyrrolo[2,3-b]pyridin-5-yloxy)benzamide], the median tumor volume in assay [1] (setting [3]) was 137 mm^3; in assay [1] (setting [4]), 202 mm^3; in assay [1] (setting [5]), 226 mm^3; in assay [1] (setting [6]) it was 212 mm^3; in assay [1] (setting [7]), 337 mm^3; in assay [1] (setting [8]) it was 494 mm^3. Besides, the median tumor volume in assay [1] (setting [9]) amounted to 565 mm^3; in assay [1] (setting [10]) it was 906 mm^3; in assay [2] (setting [13]), 136 mm^3; in assay [2] (Day 14, female SCID beige mice), 162 mm^3; in assay [2] (Day 18, female SCID beige mice) it was 267 mm^3; in assay [2] (Day 21, female SCID beige mice) it was 388 mm^3. Besides, the median tumor volume in assay [2] (Day 25, female SCID beige mice) is recorded as 497 mm^3; in assay [2] (Day 28, female SCID beige mice), 554 mm^3. In addition, the “TGI % (tumor growth inhibition compared to control)” value in assay [1] (setting [11]) is reported as 49%. Besides, the “npTCR (non-parametric Treatment to Control Ratio)” value turned out to be 0.53 in assay [1] (setting [12]) and 0.66 in assay [2] (Day 28). Besides, the Tumor free mice in assay [1] (setting [12]) and in assay [2] (Day 28) was 0/10 in each case. Further, the “TGI % (tumor growth inhibition)” value in assay [2] (Day 28, female SCID beige mice) was found to be 34%.
